According to US20260183392A1, “METHODS AND KITS FOR DNA EDITING AND TREATING, AMELIORATING AND/OR PREVENTING CANCER” (FC IP Holdings, LLC, priority 2022, published 2026):

How the values were obtained:
iPSC = test: Cell viability / cell health of engineered iPSC; type: cell-based
From the text: FIGS. 3A-3H: induced pluripotent stem cells (iPSC) engineering according to some embodiments. FIG. 3A: GFP knock-in efficiency (on Day 7) at RAB11A locus in iPSC using cssDNA or dsDNA as donor templates. FIG. 3B: Cell viability of cssDNA- and dsDNA-engineered iPSC as measured on Day 3. FIG. 3C: Does-dependent GFP reporter knock-in using GFP reporter cssDNA targeting RAB11A or B2M locus. FIG. 3D: GFP fluorescence and phase contrast imaging of representative engineered iPSC colony. FIG. 3E: Schematic diagram of cssDNA donor templates for multiplexed reporter gene knock-in at RAB11A and B2M loci. FIG. 3F: Dual knock-in of mCherry and GFP report genes at the same RAB11A locus. FIG. 3G: Dual knock-in of mCherry and GFP report genes at RAB11A locus and B2M locus, respectively. […] GFP knock-in efficiency was assessed on Day 7 post electroporation by flow cytometry. […]
The present study next evaluated small-molecule inhibitors that have been reported to enhance knock-in efficiency, including the DNA-dependent protein kinase (DNA-PK) inhibitor M-3814 and “Alt-R HDR enhancer 2” (HDRe.v2), which is described as a nonhomologous end joining (NHEJ) inhibitor (Kath et al., Mol Ther Methods Clin Dev. 2022 April 12:25:311-330; Shy et al., Nat Biotechnol. 2023 April; 41 (4): 521-531; and Tatiossian et al., Mol Ther. 2021 Mar. 3; 29 (3): 1057-1069). […]

[1] = tested on: RAB11A locus and TRAC locus in human primary T cells; test: GFP reporter knock-in at RAB11A or TRAC locus in human primary T cells; type: cell-based; conditions: 1 μM for 24 hours vs DMSO; cssDNA donors; Day 7
Protocol: FIGS. 5A-5D: Innate immune response in primary T cells, in accordance with some embodiments. FIG. 5A: Schematic diagram of the GFP reporter cssDNA targeting RAB11A locus and TRAC locus (Upper). GFP reporter knock-in efficiency with cssDNA donor templates in human primary T cells. Immediately after electroporation, cells were treated with either DMSO or 1 μM M-3814 for 24 hours. The knock-in efficiency was examined on Day 7 post electroporation. FIG. 5B. Secreted IFN-γ and TNF-α cytokines levels in cultured primary T medium after electroporation with buffer, dsDNA, cssDNA or mRNA molecules. Conditioned media were collected for cytokine analysis using the Ella immunoassay platform with selected panels. FIGS. 5C-5D: Gene set enrichment analysis (GSEA) enrichment analysis of interferon gamma response genes on the differential expression genes (DEG) of from the dsDNA or cssDNA treated primary T cells. […]
Genetically engineered T cell immunotherapies have provided remarkable clinical success to treat B cell acute lymphoblastic leukemia and have the potential to provide therapeutic benefit for numerous other cancers, infectious diseases, and autoimmunity. […] Primary T cells were co-electroplated with respective RNPs, and knock-in efficiency was determined on Day 7 post electroporation by GFP^+ cell percentage using flow cytometry. […]

[2] = tested on: TRAC locus in primary T cells; test: Anti-CD19xCD22 CAR knock-in at TRAC locus in primary T cells (Protein L, flow cytometry); type: cell-based, human; conditions: 2 μg of cssDNA plus 1 μM M-3814; Day 7
From the text: FIGS. 7A-7I: CAR-T cell engineering with cssDNA, in accordance with some embodiments. FIG. 7A: Schematic diagram of nonviral CAR-T cell engineering process. Pan T cells are isolated from peripheral blood and activated on day 0 with anti-CD3/anti-CD28 TransAct. Cells are electroporated using the Lonza nucleofector on day 2 with Cas9 RNPs+cssDNA HDR donor templates and then expanded for a total of 7-10 days. FIG. 7B: Representative day 7 flow cytometry graphs showing CAR knock-in for Mock (un-engineered) and cssDNA-engineered T cells with DMSO or 1 μM M-3814 treatments. FIG. 7C: Representative day 7 flow plots and quantifications of CAR knock-in for mock (un-engineered), cssDNA- or AAV6-engineered T cells. Cells were treated with 1 μM M-3814 for 1 day immediately after electroporation. FIG. 7D: Expansion ability of engineered CAR-T cells. FIG. 7E: In vitro killing of NALM6 acute lymphoblastic leukemia cell line with cssDNA-, AAV6-engineered CAR-T cells in comparison to unmodified T cells from same blood donors after 24 hours of co-culture. The in vitro killing measured by live cell imaging using IncuCyte® live cell imaging system. […] FIG. 7G: the data of FIG. 7F, expressed as a bar chart. […] I. FIG. 7I, Tumor burden shown as bioluminescent signal quantified per animal every week over a 21-day period. n=5 mice per group. […]

human B2M locus = test: Screen of crRNA for Cpf1 at human B2M locus (cleavage efficiency)

Compound	live cell counts (iPSC; at the chosen concentrations)	reduction in cell viability (iPSC; higher doses, day 4 post-electroporation)	increase of knock-in efficiency [1]	knock-in efficiency (percentage of CAR+ cells) [2] [%]	cleavage efficiency (human B2M locus)
COc1ccc([C@@H](O)c2cc(-c3ncnc4cc(N5CCOCC5)ccc34)c(F)cc2Cl)nn1 [M-3814]	generally unaffected	roughly 38%	60-150%	56.3	
Cpf1-crRNA: crRNA for Cpf1 at human B2M locus identified by screening (guide AGUGGGGGUGAAUUCAGUGU; chemistry not fully specified)					over 95%
